Test results reported in patent US5985826A, “Methods of using hepatic-directed compounds in pretargeting strategies” (NeoRx Corporation, priority 1997, dated 1999).

Assays:
[1] = Non-target organ uptake of Y-90-DOTA-biotin radioactivity in tumored nude mice; format: in vivo; details: vs historical controls
Procedure: (§1) Having shown that effective clearing could be achieved with the appropriate does of 16 galactose-biotin construct, studies were undertaken in tumored nude mice to evaluate the potential blockade of tumor-associated conjugate by the small 16 galactose-biotin. Mice bearing either SW-1222 colon tumor xenografts or SHT-1 small cell lung cancer (SCLC) tumor xenografts were pretargeted with NR-LU-10-streptavidin conjugate and, 22 hours later, received 46 micrograms of 16 galactose-biotin. After 2 hours, Y-90-DOTA-biotin prepared as described above was administered, and its uptake and retention in tumor and non-target tissues was evaluated by sacrifice and tissue counting for radioactivity 2 hours post-administration.
(§2) The historical controls were conducted with a 3 hour time period between clearing agent and radioactivity administration.

[2] = test system: MAb-streptavidin conjugate; assay: Serum/blood clearance of MAb-streptavidin conjugate with galactose cluster-biotin conjugates (precomplexed ex vivo, or given after the conjugate); format: in vivo, mouse; details: precomplexed at 20-fold molar excess; 120 or 12 micrograms i.v.; vs antibody conjugate control; BALB/c female
Procedure: Some or all of these compounds were assayed for their clearance directing activity in two sets of experiments. The first set of experiments involved ex vivo preparation of a precomplexed monoclonal antibody-streptavidin-biotin-galactose cluster conjugate labeled with I-125, intravenous administration of the conjugate in a mouse model, and measuring serum levels of the conjugate over time. The second set of experiments involved intravenous administration of MAb-streptavidin conjugate followed by administration of biotin-galactose cluster conjugate.
NR-LU-10 antibody (MW 150 kD) was conjugated to streptavidin (MW 66 kD) (as described in Example II above), and radiolabeled with ^125 I/PIP-NHS as described below. The antibody component of the conjugate was radioiodinated using p-aryltin phenylate NHS ester (PIP-NHS) and ^125 I sodium iodide. […]
Experiments were designed and executed to evaluate a 16 galactose cluster-biotin construct without the stabilizing tertiary amine structure of the nitrogen of the amide closest to the biotin, the preparation of such a stabilized construct being described above in Example V. BALB/c female mice (20-25 g) were injected i.v. with 120 micrograms of NR-LU-10-streptavidin conjugate radiolabeled with I-125, and blood was serially collected from n=3 mice. The clearance of the conjugate from the blood was measured of these control mice. […]

[3] = test system: MAb-streptavidin; assay: Relative stoichiometry of In-111 DOTA-biotin to I-125 MAb-streptavidin at the tumor target site; format: in vivo; details: I-125 MAb-streptavidin and In-111 DOTA-biotin
From the text: Experiments were. also carried out using I-125 labeled MAb-streptavidin conjugate and In-111 labeled DOTA-biotin to assess the relative stoichiometry of those materials at the tumor target site using 16 galactose-biotin as a clearing agent. […] When a similar protocol was employed with the 16 galactose-biotin construct, the ratio of DOTA-biotin to MAb-streptavidin was only 2.65. […] Experiments to assess the nature of this blockade are underway.

[4] = test system: SHT-1 small cell lung cancer (SCLC) tumor xenografts; assay: Tumor targeting of Y-90-DOTA-biotin after NR-LU-10-streptavidin and 16 galactose-biotin, SHT-1 SCLC xenograft; format: in vivo, nude mice
Procedure: as §1, §2

[5] = test system: SW-1222 colon tumor xenografts; assay: Tumor targeting of Y-90-DOTA-biotin after NR-LU-10-streptavidin and 16 galactose-biotin, SW-1222 colon xenograft; format: in vivo, nude mice
Procedure: as §1, §2

[6] = test system: I-125 NR-LU-10-streptavidin conjugate; assay: In vivo pretargeting-format clearance of I-125 NR-LU-10-streptavidin conjugate from circulation; set-up: species or system mice (BALB/c)
Procedure: In a third set of experiments conducted in vivo in the pretargeting format (e.g., administration of radiolabeled MAb-streptavidin conjugate followed by administration of clearing agent), the (galactosyl)8 -LC-biotin conjugate was also compared to galactose-HSA-biotin prepared as described above. This comparison was conducted in a Balb/c mouse model and was for the ability to clear an I-125 labeled monoclonal antibody-streptavidin conjugate (1-125 LU-10-streptavidin) from circulation as a function of time. […] Subsequent experiments have further shown that hepatic-directed compounds containing 16 galactose residues provide for even better clearance than those containing 8 galactose residues.
Having shown that precomplexed material could clear rapidly and efficiently from the blood, experiments were conducted to measure the effectiveness of various doses of-the 16 galactose-biotin construct to form rapidly clearing complexes in vivo. Mice received 400 micrograms of I-125 NR-LU-10streptavidin conjugate intravenously, and approximately 22 hours later received the 16 galactose-biotin construct at doses of 100 50, or 10:1 (456, 228 and 45 micrograms, respectively) molar excess to circulating monoclonal antibody-streptavidin conjugate. […] The larger doses may be sufficiently high to achieve competition between complexed and non-complexed 16-galactose-biotin for liver receptors, thereby precluding all but a small initial fraction of the complexed MAb-streptavidin conjugate from clearing via the liver. Following the plateau period, clearing of the conjugate remained slow and was eventually less complete than that achieve with the lower dose (approximately 10% of the conjugate remained in circulation at the higher doses, in comparison to 2% for the lower dose). […] If the 16 galactose-biotin construct is unstable, sufficient biotin may be released at higher doses to that a significant portion of circulating conjugate became blocked thereby and, consequently, was not cleared via hepatic-mediated uptake.

[7] = 46 micrograms, Y-90-DOTA-biotin, vs historical controls with (galactose)35-HSA-(biotin)2
[8] = vs (galactose)35-HSA-(biotin)2 historical controls

| SMILES | Liver uptake ([1]; 2 hours between clearing agent and radioactivity) | Non-target organ uptake except liver ([1]; Y-90 radioactivity) | Blood clearance of precomplexed conjugate [2] | Ratio of DOTA-biotin to MAb-streptavidin at the tumor [3] | Tumor targeting, low antigen-expressing SCLC xenograft [4, 7] | Tumor uptake of radioactivity, SHT-1, overall assessment [4, 8] | Tumor targeting, high antigen-expressing colon xenograft [5, 7] | Tumor uptake of radioactivity, SW-1222, overall assessment [5, 8] | Efficiency at removing circulating conjugate, lower and higher doses ([6]; 12, 23 and 228 microgram, vs 46 microgram) | Rebound effect, lower doses ([6]; 12 and 23 microgram) | Clearing effectiveness at 46 micrograms vs (galactose)35-HSA-(biotin)2 ([6]; 46 microgram, vs previously optimized dose) | Effectiveness at clearing conjugate, each dose ([6]; 100, 50 or 10:1 molar excess (456, 228 and 45 micrograms), about 22 h after 400 micrograms conjugate) | Optimal clearing dose ([6]; decreasing dose comparison) [microgram] | Conjugate remaining in circulation, higher doses ([6]; higher doses (456 and 228 micrograms; 100:1, 50:1)) | Duration of plateau in conjugate clearance ([6]; larger doses (456, 228 micrograms), after administration of 16 galactose-biotin) | Conjugate remaining in circulation, lower dose ([6]; lower dose (45 micrograms; 10:1)) [%] | Clearing of MAb-streptavidin from the circulation, summary ([6]; vascular and extravascular spaces) | Ability to clear I-125 LU-10-streptavidin from circulation ([6]; Balb/c mouse, vs galactosylated-HSA-biotin) |
| --- | --- | --- | --- | --- | --- | --- | --- | --- | --- | --- | --- | --- | --- | --- | --- | --- | --- | --- |
| CN(CCCCSC1O[C@H](CO)[C@H](O)[C@H](O)[C@H]1O)C(=O)CCCCCN(CCCCCC(=O)N(C)CCCCSC1O[C@H](CO)[C@H](O)[C@H](O)[C@H]1O)C(=O)CCCCCN(CCCCCC(=O)N(CCCCCC(=O)N(C)CCCCSC1O[C@H](CO)[C@H](O)[C@H](O)[C@H]1O)CCCCCC(=O)N(C)CCCCSC1O[C@H](CO)[C@H](O)[C@H](O)[C@H]1O)C(=O)CCCCCN(CCCCCC(=O)N(CCCCCC(=O)N(CCCCCC(=O)N(C)CCCCSC1O[C@H](CO)[C@H](O)[C@H](O)[C@H]1O)CCCCCC(=O)N(C)CCCCSC1O[C@H](CO)[C@H](O)[C@H](O)[C@H]1O)CCCCCC(=O)N(CCCCCC(=O)N(C)CCCCSC1O[C@H](CO)[C@H](O)[C@H](O)[C@H]1O)CCCCCC(=O)N(C)CCCCSC1O[C@H](CO)[C@H](O)[C@H](O)[C@H]1O)C(=O)CCCCCN(CCCCCC(=O)N(CCCCCC(=O)N(CCCCCC(=O)N(CCCCCC(=O)N(C)CCCCSC1O[C@H](CO)[C@H](O)[C@H](O)[C@H]1O)CCCCCC(=O)N(C)CCCCSC1O[C@H](CO)[C@H](O)[C@H](O)[C@H]1O)CCCCCC(=O)N(CCCCCC(=O)N(C)CCCCSC1O[C@H](CO)[C@H](O)[C@H](O)[C@H]1O)CCCCCC(=O)N(C)CCCCSC1O[C@H](CO)[C@H](O)[C@H](O)[C@H]1O)CCCCCC(=O)N(CCCCCC(=O)N(CCCCCC(=O)N(C)CCCCSC1O[C@H](CO)[C@H](O)[C@H](O)[C@H]1O)CCCCCC(=O)N(C)CCCCSC1O[C@H](CO)[C@H](O)[C@H](O)[C@H]1O)CCCCCC(=O)N(CCCCCC(=O)N(C)CCCCSC1O[C@H](CO)[C@H](O)[C@H](O)[C@H]1O)CCCCCC(=O)N(C)CCCCSC1O[C@H](CO)[C@H](O)[C@H](O)[C@H]1O)C(=O)CCCCCNC(=O)CCCC[C@@H]1SC[C@@H]2NC(=O)N[C@@H]21 (stereo partly drawn) [16 galactose-biotin] | slightly higher levels | comparable in all tissues except liver | extremely rapid clearance from the blood | 2.65 | slightly higher | roughly equivalent | slightly lower | roughly equivalent | less efficient at removing circulating conjugate | significant rebound effect | more effective than the previously optimized dose of (galactose)35 -HSA-(biotin)2 | effective at clearing conjugate | 46 | approximately 10% | about 1 hour | 2 | effective construct for clearing MAb-streptavidin from the circulation |  |
| CN(CCCCSC1O[C@H](CO)[C@H](O)[C@H](O)[C@H]1O)C(=O)CCCCCN(CCCCCC(=O)N(C)CCCCSC1O[C@H](CO)[C@H](O)[C@H](O)[C@H]1O)C(=O)CCCCCN(CCCCCC(=O)N(CCCCCC(=O)N(C)CCCCSC1O[C@H](CO)[C@H](O)[C@H](O)[C@H]1O)CCCCCC(=O)N(C)CCCCSC1O[C@H](CO)[C@H](O)[C@H](O)[C@H]1O)C(=O)CCCCCN(CCCCCC(=O)N(CCCCCC(=O)N(CCCCCC(=O)N(C)CCCCSC1O[C@H](CO)[C@H](O)[C@H](O)[C@H]1O)CCCCCC(=O)N(C)CCCCSC1O[C@H](CO)[C@H](O)[C@H](O)[C@H]1O)CCCCCC(=O)N(CCCCCC(=O)N(C)CCCCSC1O[C@H](CO)[C@H](O)[C@H](O)[C@H]1O)CCCCCC(=O)N(C)CCCCSC1O[C@H](CO)[C@H](O)[C@H](O)[C@H]1O)C(=O)CCCCCNC(=O)CCCC[C@@H]1SC[C@@H]2NC(=O)N[C@@H]21 (stereo partly drawn) [(galactosyl)8 -LC-biotin] |  |  |  |  |  |  |  |  |  |  |  |  |  |  |  |  |  | comparable to galactosylated-HSA-biotin |
